Experiments:
[1] = test system: reserpine-induced skeletal muscle rigidity; assay: Muscle-relaxing effect on reserpine-induced muscular rigidity in rats; format: in vivo, rat (male Sprague-Dawley); conditions: Rattus norvegicus, ip, read-out: ED50, reduction of reserpine-induced skeletal muscle rigidity
Experimental: Male Sprague-Dawley rats weighing 200-220 g were kept in groups of two under standard conditions (temperature 22° C., humidity 40-60%) without any restriction in food or water. Illumination was provided from 6 a.m. to 6 p.m. The experiments were approved by the local animal health committee which was responsible for the protection and proper use of experimental animals.
The experimental approach has already been described in detail (Nickel et al. Arzn Forsch/Drug Res 1997; 47:1081-6). In brief, the rigidity of the skeletal muscle was measured by consecutively measuring the resistance of the flexor and extensor muscles which act in opposition when stretching and bending the foot in the joint. The pressure differences which were generated by the movement of the foot were recorded continuously. The signals were analyzed using a PC program which calculated the resistances of the flexor and extensor at the foot over periods of 10 min.
The active compounds were prepared freshly every day and were administered simultaneously i.p. at various doses 16 h after the reserpine injection (2 mg/kg, intraperitoneally).
The statistical analysis of the differences between the calculated and measured values was performed by means of a one-way. ANOVA. Asterisks (*) denote the significant level p<0.01.

[2] = test system: skeletal muscle tone of conscious mice; assay: Skeletal muscle tone in mice in the inclined screen test; format: in vivo, mouse (NMRI); conditions: Mus musculus, ip, single substance, read-out: ED50, decrease of skeletal muscle tone (inclined screen test)
Experimental: NMRI mice weighing 22-24 g were kept in groups of four under standard conditions (temperature 22° C., humidity 40-60%) without any restriction in food and water. Illumination was provided from 6 a.m. to 6 p.m. All the experiments were approved by the local animal health committee which was responsible for the protection and proper use of experimental animals.
What is termed the “30 degrees inclined screen test” (Simiand et al., Arch Int Pharmacodyn Ther 1989; 297:272-85) was used as a pharmacological model which enables predictions to be made regarding muscle-relaxing properties. The inclined screen consists of a wooden frame containing a wire gauze screen which can be inclined at any arbitrary angle (in this present case: […]). The lower part of the screen is located 15 cm above the table. The animals are placed on the inclined screen and their ability to remain on the inclined screen is observed over a period of 30 s. The number of animals which fall from the screen is counted and the proportion it represents of the total number in each group is calculated. The active compounds were prepared freshly every day and were administered simultaneously i.p. at various doses, at 1 h before beginning the experiments, for analyzing the skeletal muscle tone.
The statistical analysis of the differences between the calculated and measured values were performed by means of a one-way ANOVA. […]

Compound | ED50 [1] [mg/kg] | ED50 [2] [mg/kg]
CCOC(=O)Nc1ccc(NCc2ccc(F)cc2)nc1N [flupirtine] | 6.45 | 10.8
Cc1ccc(C(=O)C(C)CN2CCCCC2)cc1 (stereo not shown) [tolperisone] | 32.4 | 51
